Experimental data: US11986532B2 (Arvinas Operations, Inc., priority 2021, dated 2024)
Like-named read-outs stand apart in the source and are kept apart here.

Biological target: T1, BCL6 (Homo sapiens, UniProt P41182)
T1 construct: endogenous in cells; host or cells: T47D breast cancer epithelial cells
Test: Immunofluorescence protocol for high content imaging of BCL6 (degradation) in T47D cells, 3 days compound treatment
Format: cell-based
Details: for Dmax: read-out: Mean Dmax (%)** category; for DC50: read-out: Mean DC50 (nM)* category
How it was run: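 Cells are seeded to reach ~70-90% confluence at endpoint, then dosed next day with compound at a final top concentration of 0.1 or 1 μM (11 points, 3-fold). After 3 days, BCL6 is detected by immunofluorescence and quantified by high-content imaging.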

[1] = T47D cells, 3 days compound treatment

| Structure (SMILES) | Dmax (T47D) [%] | DC50 [nM] | DC50 [1] [nM] | Dmax [1] [%] |
| --- | --- | --- | --- | --- |
| CNC(=O)COc1cc2cc(Nc3cc(N4CCC(CN5CCC6(CC5)CN(c5ccc7c(c5)CN(C5CCC(=O)NC5=O)C7=O)C6(C)C)CC4)ncc3Cl)ccc2n(C(C)C)c1=O (centres unmarked) [Compound 233, 2-{[6-({5-chloro-2-[4-({2-[2-(2,6-dioxopiperidin-3-yl)-1-oxo-2,3-dihydro-1H-isoindol-5-yl]-1,1-dimethyl-2,7-diazaspiro[3.5]nonan-7-yl}methyl)piperidin-1-yl]pyridin-4-yl}amino)-2-oxo-1-(propan-2-yl)-1,2-dihydroquinolin-3-yl]oxy}-N-methylacetamide] | 50 to 70 | < 10 | – | – |
| CNC(=O)COc1cc2cc(Nc3nc(N4CCC(O[C@H]5C[C@H](N6CCC7(CC6)CN(c6ccc8c(c6)C(=O)N(C6CCC(=O)NC6=O)C8=O)C7)C5)CC4)ncc3Cl)ccc2n(C(C)C)c1=O (some centres unmarked) [Compound 357, 2-({6-[(5-chloro-2-{4-[(1r,3r)-3-{2-[2-(2,6-dioxopiperidin-3-yl)-1,3-dioxo-2,3-dihydro-1H-isoindol-5-yl]-2,7-diazaspiro [3.5]nonan-7-yl}cyclobutoxy]piperidin-1-yl}pyrimidin-4-yl)amino]-2-oxo-1-(propan-2-yl)-1,2-dihydroquinolin-3-yl}oxy)-N-methylacetamide] | ≥ 70 | < 10 | – | – |
| CNC(=O)COc1cc2cc(Nc3nc(N4CCC5(CCN(CC6(F)CCN(c7c(F)ccc8c7C(=O)N(C7CCC(=O)NC7=O)C8)CC6)CC5)CC4)ncc3Cl)ccc2n(C(C)C)c1=O (centres unmarked) [Compound 152, 2-{[6-({5-chloro-2-[9-({1-[2-(2,6-dioxopiperidin-3-yl)-5-fluoro-3-oxo-2,3-dihydro-1H-isoindol-4-yl]-4-fluoropiperidin-4-yl}methyl)-3,9-diazaspiro[5.5]undecan-3-yl]pyrimidin-4-yl}amino)-2-oxo-1-(propan-2-yl)-1,2-dihydroquinolin-3-yl]oxy}-N-methylacetamide] | – | – | 10 to 50 | – |
| CNC(=O)COc1cc2cc(Nc3nc(N4CCC(CN5CCC6(CN(c7cccc8c7C(=O)N(C7CCC(=O)NC7=O)C8=O)C6)C(F)C5)CC4)ncc3Cl)ccc2n(C(C)C)c1=O (centres unmarked) [Compound 325, 2-{[6-({5-chloro-2-[4-({2-[2-(2,6-dioxopiperidin-3-yl)-1,3-dioxo-2,3-dihydro-1H-isoindol-4-yl]-5-fluoro-2,7-diazaspiro[3.5]nonan-7-yl}methyl)piperidin-1-yl]pyrimidin-4-yl}amino)-2-oxo-1-(propan-2-yl)-1,2-dihydroquinolin-3-yl]oxy}-N-methylacetamide] | 50 to 70 | < 10 | – | – |
| CNC(=O)COc1cc2cc(Nc3nc(N4CCC(O[C@H]5C[C@H](N6CCN(c7ccc8c(c7)C(=O)N(C7CCC(=O)NC7=O)C8=O)C[C@H]6C)C5)CC4)ncc3Cl)ccc2n(C(C)C)c1=O (stereo partly drawn) [Compound 263, 2-({6-[(5-chloro-2-{4-[(1r,3r)-3-[(2R)-4-[2-(2,6-dioxopiperidin-3-yl)-1,3-dioxo-2,3-dihydro-1H-isoindol-5-yl]-2-methylpiperazin-1-yl]cyclobutoxy]piperidin-1-yl}pyrimidin-4-yl)amino]-2-oxo-1-(propan-2-yl)-1,2-dihydroquinolin-3-yl}oxy)-N-methylacetamide] | 50 to 70 | < 10 | – | – |
| CNC(=O)COc1cc2cc(Nc3nc(N4CCN(C(C)(C)C5CCN(c6cc(F)c7c(c6)CN(C6CCC(=O)NC6=O)C7=O)CC5)CC4)ncc3Cl)ccc2n(C(C)C)c1=O (centres unmarked) [Compound 76, 2-{[6-({5-chloro-2-[4-(2-{1-[2-(2,6-dioxopiperidin-3-yl)-7-fluoro-1-oxo-2,3-dihydro-1H-isoindol-5-yl]piperidin-4-yl}propan-2-yl)piperazin-1-yl]pyrimidin-4-yl}amino)-2-oxo-1-(propan-2-yl)-1,2-dihydroquinolin-3-yl]oxy}-N-methylacetamide] | – | – | < 10 | 50 to 70 |
| CNC(=O)COc1cc2cc(Nc3nc(N4CCC(CN5CCC6(CC5)CN(c5cccc7c5C(=O)N(C5CCC(=O)NC5=O)C7=O)C6(C)C)CC4)ncc3Cl)ccc2n(C(C)C)c1=O (centres unmarked) [Compound 337, 2-{[6-({5-chloro-2-[4-({2-[2-(2,6-dioxopiperidin-3-yl)-1,3-dioxo-2,3-dihydro-1H-isoindol-4-yl]-1,1-dimethyl-2,7-diazaspiro[3.5]nonan-7-yl}methyl)piperidin-1-yl]pyrimidin-4-yl}amino)-2-oxo-1-(propan-2-yl)-1,2-dihydroquinolin-3-yl]oxy}-N-methylacetamide] | 50 to 70 | < 10 | – | – |
| CNC(=O)COc1cc2cc(Nc3nc(N4CCC(O[C@H]5C[C@H](N6[C@H](C)CN(c7ccc8c(c7)C(=O)N(C7CCC(=O)NC7=O)C8=O)C[C@@H]6C)C5)CC4)ncc3Cl)ccc2n(C(C)C)c1=O (stereo partly drawn) [Compound 248, 2-[[6-[[5-chloro-2-[4-[3-[(2R,6S)-4-[2-(2,6-dioxo-3-piperidyl)-1,3-dioxo-isoindolin-5-yl]-2,6-dimethyl-piperazin-1-yl]cyclobutoxy]-1-piperidyl]pyrimidin-4-yl]amino]-1-isopropyl-2-oxo-3-quinolyl]oxy]-N-methyl-acetamide] | 50 to 70 | < 10 | – | – |
| CNC(=O)COc1cc2cc(Nc3nc(N4CCC(CN5CCC6(CC5)CC5(CN(c7ccc8c(c7)C(=O)N(C7CCC(=O)NC7=O)C8=O)C5)C6)CC4)ncc3Cl)ccc2n(C(C)C)c1=O (centres unmarked) [Compound 373, 2-{[6-({5-chloro-2-[4-({2-[2-(2,6-dioxopiperidin-3-yl)-1,3-dioxo-2,3-dihydro-1H-isoindol-5-yl]-2,9-diazadispiro[3.1.5^6.1^4]dodecan-9-yl}methyl)piperidin-1-yl]pyrimidin-4-yl}amino)-2-oxo-1-(propan-2-yl)-1,2-dihydroquinolin-3-yl]oxy}-N-methylacetamide] | ≥ 70 | < 10 | – | – |
| CC[C@H]1CN([C@H]2C[C@H](OC3CCN(c4ncc(Cl)c(Nc5ccc6c(c5)cc(OCC(=O)NC)c(=O)n6C(C)C)n4)CC3)C2)CCN1c1ccc2c(c1Cl)CN(C1CCC(=O)NC1=O)C2=O (stereo partly drawn) [Compound 196, 2-({6-[(5-chloro-2-{4-[(1r,3r)-3-[(3S)-4-[4-chloro-2-(2,6-dioxopiperidin-3-yl)-1-oxo-2,3-dihydro-1H-isoindol-5-yl]-3-ethylpiperazin-1-yl]cyclobutoxy]piperidin-1-yl}pyrimidin-4-yl)amino]-2-oxo-1-(propan-2-yl)-1,2-dihydroquinolin-3-yl}oxy)-N-methylacetamide] | – | – | < 10 | ≥ 70 |
| CNC(=O)COc1cc2cc(Nc3nc(N4CCC(O[C@H]5C[C@H](N6CCC(c7cc8c(cc7F)C(=O)N(C7CCC(=O)NC7=O)C8)CC6)C5)CC4)ncc3Cl)ccc2n(C(C)C)c1=O (some centres unmarked) [Compound 79, 2-({6-[(5-chloro-2-{4-[(1r,3r)-3-{4-[2-(2,6-dioxopiperidin-3-yl)-6-fluoro-1-oxo-2,3-dihydro-1H-isoindol-5-yl]piperidin-1-yl}cyclobutoxy]piperidin-1-yl}pyrimidin-4-yl)amino]-2-oxo-1-(propan-2-yl)-1,2-dihydroquinolin-3-yl}oxy)-N-methylacetamide] | – | – | < 10 | 50 to 70 |
| CNC(=O)COc1cc2cc(Nc3nc(N4CCC5(CCN(CC6CCN(c7cccc8c7CN(C7CCC(=O)NC7=O)C8=O)CC6)C5)C4)ncc3Cl)ccc2n(C(C)C)c1=O (centres unmarked) [Compound 12, 2-{[6-({5-chloro-2-[7-({1-[2-(2,6-dioxopiperidin-3-yl)-1-oxo-2,3-dihydro-1H-isoindol-4-yl]piperidin-4-yl}methyl)-2,7-diazaspiro[4.4]nonan-2-yl]pyrimidin-4-yl}amino)-2-oxo-1-(propan-2-yl)-1,2-dihydroquinolin-3-yl]oxy}-N-methylacetamide] | – | – | < 10 | 50 to 70 |
| CNC(=O)COc1cc2cc(Nc3nc(N4CCC(O[C@H]5C[C@H](N6CCC(c7cc(F)c8c(c7F)CN([C@H]7CCC(=O)NC7=O)C8=O)CC6)C5)CC4)ncc3Cl)ccc2n(C(C)C)c1=O [Compound 188, 2-({6-[(5-chloro-2-{4-[(1r,3r)-3-(4-{2-[(3S)-2,6-dioxopiperidin-3-yl]-4,7-difluoro-1-oxo-2,3-dihydro-1H-isoindol-5-yl}piperidin-1-yl)cyclobutoxy]piperidin-1-yl}pyrimidin-4-yl)amino]-2-oxo-1-(propan-2-yl)-1,2-dihydroquinolin-3-yl}oxy)-N-methylacetamide] | – | – | < 10 | ≥ 70 |
| CNC(=O)COc1cc2cc(Nc3nc(N4CCC(O[C@H]5C[C@H](N6CCC(O)(c7ccc8c(c7F)CN(C7CCC(=O)NC7=O)C8=O)CC6)C5)CC4)ncc3Cl)ccc2n(C(C)C)c1=O (some centres unmarked) [Compound 277, 2-({6-[(5-chloro-2-{4-[(1r,3r)-3-{4-[2-(2,6-dioxopiperidin-3-yl)-4-fluoro-1-oxo-2,3-dihydro-1H-isoindol-5-yl]-4-hydroxypiperidin-1-yl}cyclobutoxy]piperidin-1-yl}pyrimidin-4-yl)amino]-2-oxo-1-(propan-2-yl)-1,2-dihydroquinolin-3-yl}oxy)-N-methylacetamide] | 50 to 70 | < 10 | – | – |
| CNC(=O)COc1cc2cc(Nc3nc(N4CCC5(CCN(CC6(F)CCN(c7ccc(F)c8c7CN(C7CCC(=O)NC7=O)C8=O)CC6)CC5)CC4)ncc3Cl)ccc2n(C(C)C)c1=O (centres unmarked) [Compound 129, 2-{[6-({5-chloro-2-[9-({1-[2-(2,6-dioxopiperidin-3-yl)-7-fluoro-1-oxo-2,3-dihydro-1H-isoindol-4-yl]-4-fluoropiperidin-4-yl}methyl)-3,9-diazaspiro[5.5]undecan-3-yl]pyrimidin-4-yl}amino)-2-oxo-1-(propan-2-yl)-1,2-dihydroquinolin-3-yl]oxy}-N-methylacetamide] | – | – | < 10 | 50 to 70 |
